From US20230096028A1, “BICYCLIC HETEROCYCLYL COMPOUNDS AND USES THEREOF” (Revolution Medicines, Inc., priority 2019, published 2023) come the findings set out here.

Like-named read-outs stand apart in the source and are kept apart here. Bounds are passed on as bounds.

The test system of assay [1] is PC-9 cells (EGFR Ex19Del). The experiment in a line: Potency Assay: pERK (SOS1 pERK IC50 Assay, AlphaLISA SureFire Ultra p-ERK1/2). In kind it is cell-based. As to conditions: Homo sapiens, read-out: SOS1 pERK IC50. In a few lines: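 Cellular pERK1/2 by AlphaLISA SureFire Ultra after 1 h compound exposure (37° C., highest concentration 10 μM, 3-fold steps, duplicates) of EGFR Ex19Del PC-9 cells seeded the day before. A 4-parameter fit of signal versus log concentration gives IC50.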

For assay [2], the target named is T1, SOS1 catalytic domain (residues 564-1049) (Homo sapiens, UniProt Q07889).
T1 sequence (Q07889 564-1049): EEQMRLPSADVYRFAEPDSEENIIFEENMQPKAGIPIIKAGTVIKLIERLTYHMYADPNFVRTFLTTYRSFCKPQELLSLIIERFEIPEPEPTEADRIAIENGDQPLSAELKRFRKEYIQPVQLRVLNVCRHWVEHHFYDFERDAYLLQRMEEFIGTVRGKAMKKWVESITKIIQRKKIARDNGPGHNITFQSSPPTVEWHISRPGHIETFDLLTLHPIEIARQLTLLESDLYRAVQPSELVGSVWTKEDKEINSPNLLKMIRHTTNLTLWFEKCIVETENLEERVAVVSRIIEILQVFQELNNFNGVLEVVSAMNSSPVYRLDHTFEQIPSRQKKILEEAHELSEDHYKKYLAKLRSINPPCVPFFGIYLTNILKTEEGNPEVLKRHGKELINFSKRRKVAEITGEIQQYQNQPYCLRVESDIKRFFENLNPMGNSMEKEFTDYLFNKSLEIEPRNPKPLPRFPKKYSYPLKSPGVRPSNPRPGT
The experiment in a line: Potency Assay: binding affinity to SOS1 using Surface Plasmon Resonance (SPR). On the set-up: SOS1 catalytic domain (residues 564-1049) immobilized on a sensor chip. As to conditions: immobilized SOS1 catalytic domain (residues 564-1049), read-out: SOS1 SPR Equilibrium Kd. In a few lines:
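Kd was obtained by plotting binding response, taken just before association ended, versus compound concentration on a Biacore 8K. Compounds flowed at 50 μL/min over streptavidin-captured avi-SOS1 catalytic domain (~6000 RU), followed by buffer dissociation; HEPES 0.01 M/NaCl 0.15 M/0.05% P20 buffer, double-referenced.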

The target of assay [3] is T1, SOS1 catalytic domain (residues 564-1049). Kind of assay: Mode of Action Assay: inhibition of SOS1 nucleotide exchange activity (SOS1 TR-FRET IC50 Assay).
Method: The purpose of this assay was to characterize the inhibitory activity of compounds on SOS1 nucleotide exchange of KRAS. Data was reported as IC50 values based on the TR-FRET signal.
Note—the following protocol describes a procedure for monitoring the inhibition of SOS1 nucleotide exchange activity of wild-type KRAS in response to a compound of the invention.
The SOS1/compound mixture was incubated at room temperature with constant mixing on an orbital shaker for 20 minutes to allow the reaction to reach equilibrium. […] This mixture was prepared immediately before addition to the SOS1/compound mixture to prevent intrinsic nucleotide exchange. Then 5 μL of the pre-incubated SOS1/compound mixture and 7.5 μL of the KRAS mixture were added sequentially in a 384-well low volume black round bottom plate and incubated at room temperature with constant shaking for 30 minutes. Time-resolved fluorescence was measured on a PerkinElmer Envision plate reader.
Three replicates were performed for each compound. Data were normalized by the following: (Positive control−Sample signal)/(Positive control−negative control)*100. The data were fit using a four-parameter logistic fit.
[4] abbreviates: PC-9 cells (EGFR Ex19Del), 1 hour incubation, AlphaLISA p-ERK1/2.

For `C[C@@H](Nc1nc(C(F)F)nc2c1CN(C(=O)N1CCOCC1)C2)c1cc(N)cc(C(F)(F)F)c1` [Example 132, N-[(1R)-1-[3-amino-5-(trifluoromethyl)phenyl]ethyl]-2-(difluoromethyl)-6-(morpholine-4-carbonyl)-5H,6H,7H-pyrrolo[3,4-d]pyrimidin-4-amine], the half-maximal inhibitory concentration (IC50) in assay [1] (setting [4]) and in assay [3] was below 1 µM each time. The Kd in assay [2] was below 0.4 µM.

Take `C[C@@H](Nc1nc(Cl)nc2c1CN(C(=O)N1C[C@@H]3C[C@H]1CN3)C2)c1cccc(C(F)F)c1F` [Example 399]: the IC50 is above 1 µM in assay [1] (setting [4]) and below 1 µM in assay [3]. Further, in assay [2], the Kd was below 0.4 µM.

In the case of `CC(=O)N1CCN(C(=O)N2Cc3nc(Cl)nc(N[C@H](C)c4cccc(C(F)(F)F)c4)c3C2)CC1` [Example 381], the IC50 in assay [1] (setting [4]) and in assay [3] was below 1 µM throughout. In assay [2], the dissociation constant (Kd) was below 0.4 µM.

For the compound `COC1(C(=O)N2Cc3nc(Cl)nc(N[C@H](C)c4cccc5c4OCC5(F)F)c3C2)CCOCC1` [Example 490], the IC50 in assay [1] (setting [4]) and in assay [3] was below 1 µM in each case. Also, the Kd in assay [2] is below 0.4 µM.

`COC1(C(=O)N2Cc3nc(Cl)nc(N[C@H](C)c4cccc(C(F)(F)CO)c4)c3C2)CCOCC1` [Example 167, [2-chloro-4-[[(1R)-1-[3-(1,1-difluoro-2-hydroxy-ethyl)phenyl]ethyl]amino]-5,7-dihydropyrrolo[3,4-d]pyrimidin-6-yl]-(4-methoxytetrahydropyran-4-yl)methanone]: the IC50 in assay [1] (setting [4]) and in assay [3] was below 1 µM throughout. The Kd in assay [2] was below 0.4 µM.

Turning to `C[C@@H](Nc1nc(Cl)nc2c1CN(C(=O)N1CCNCC1)C2)c1cccc(C(F)F)c1F` [Example 407], the IC50 in assay [1] (setting [4]) and in assay [3] was below 1 µM throughout. In addition, the Kd in assay [2] was below 0.4 µM.

On to `Cc1nc2c(c(N[C@H](C)c3cc(N)cc(C(F)(F)F)c3)n1)CN(S(=O)(=O)c1ccc(N)nc1)C2` [Example 36, (R)—N-(1-(3-amino-5-(trifluoromethyl)phenyl)ethyl)-6-((6-aminopyridin-3-yl)sulfonyl)-2-methyl-6,7-dihydro-5H-pyrrolo[3,4-d]pyrimidin-4-amine], for which the IC50 in assay [1] (setting [4]) and in assay [3] was above 1 µM in each case. For the same compound, in assay [2], the Kd was above 0.4 µM.

As for `C[C@@H](Nc1nc(Cl)nc2c1CN(C(=O)[C@@H]1CNCCO1)C2)c1cccc(C(F)F)c1F` [Example 303], the IC50 in assay [1] (setting [4]) and in assay [3] was below 1 µM in each case. Moreover, the Kd in assay [2] is below 0.4 µM.

`C[C@@H](Nc1ncnc2c1CN(C(=O)N1CCOCC1)C2)c1cccc(C(F)F)c1F` [Example 389]: the IC50 is above 1 µM in assay [1] (setting [4]) and below 1 µM in assay [3]. The Kd in assay [2] was below 0.4 µM.

`COc1nccnc1C(=O)N1CCc2nc(Cl)nc(N[C@H](C)c3cc(N)cc(C(F)(F)F)c3)c2C1` [Example 231]: the IC50 in assay [1] (setting [4]) and in assay [3] was above 1 µM in each case. Further, in assay [2], the Kd was above 0.4 µM.

As to `C[C@@H](Nc1nc(Cl)nc2c1CN(C(=O)N1CCN(C)C(c3ccncc3)C1)C2)c1cccc(C(F)F)c1F` (stereo partly drawn) [Example 417], the IC50 in assay [1] (setting [4]) and in assay [3] was below 1 µM throughout. Besides, the Kd in assay [2] was below 0.4 µM.

Turning to `COc1nccc(C(=O)N2Cc3nc(Cl)nc(N[C@H](C)c4cc(N)cc(C(F)(F)F)c4)c3C2)n1` [Example 72], the half-inhibitory concentration (IC50) in assay [1] (setting [4]) and in assay [3] was below 1 µM in each case. Moreover, in assay [2], the equilibrium dissociation constant (Kd) is above 0.4 µM.

In the case of `Cc1nc(N[C@H](C)c2cccc(C(F)F)c2F)c2c(n1)N(C)C(=O)N(C1CCN(C)CC1)C2` [Example 445, (R)-5-((1-(3-(difluoromethyl)-2-fluorophenyl)ethyl)amino)-1,7-dimethyl-3-(1-methylpiperidin-4-yl)-3,4-dihydropyrimido[4,5-d]pyrimidin-2(1H)-one], the IC50 in assay [1] (setting [4]) is above 1 µM; in assay [3], below 1 µM. The Kd in assay [2] was above 0.4 µM.

In the case of `C[C@@H](Nc1nc(Cl)nc2c1CN(C(=O)N1CCNc3ccncc31)C2)c1cccc(C(F)(F)F)c1` [Example 375], the IC50 in assay [1] (setting [4]) and in assay [3] was below 1 µM throughout. Further, the equilibrium dissociation constant (Kd) in assay [2] is below 0.4 µM.

Take `C[C@@H](Nc1nc(Cl)nc2c1CN(C(=O)N1CCCC13CCNC3)C2)c1cccc(C(F)F)c1F` (stereo partly drawn) [Example 382]: the values for the IC50 in assay [1] (setting [4]) and in assay [3] were above 1 µM and below 1 µM, respectively. Also, in assay [2], the dissociation constant (Kd) is below 0.4 µM.

`C[C@@H](Nc1nc(CO)nc2c1CN(C(=O)N1CCOCC1)C2)c1cc(N)cc(C(F)(F)F)c1` [Example 129, (4-{[(1R)-1-[3-amino-5-(trifluoromethyl)-phenyl]ethyl]amino}-6-(morpholine-4-carbonyl)-5H,6H,7H-pyrrolo[3,4-d]pyrimidin-2-yl)methanol]: the IC50 in assay [1] (setting [4]) and in assay [3] was below 1 µM in each case. For the same compound, the equilibrium dissociation constant (Kd) in assay [2] was below 0.4 µM.

For `C[C@@H](Nc1nc(Cl)nc2c1CN(S(=O)(=O)C1CCOC1)CC2)c1cc(N)cc(C(F)(F)F)c1` (stereo partly drawn) [Example 449], the IC50 in assay [1] (setting [4]) and in assay [3] was below 1 µM in each case. Also, the equilibrium dissociation constant (Kd) in assay [2] is below 0.4 µM.

On to `C[C@@H](Nc1nc(Cl)nc2c1CN(S(=O)(=O)C1CNC1)C2)c1cc(N)cc(C(F)(F)F)c1` [Example 48], for which the concentration for half-maximal inhibition (IC50) in assay [1] (setting [4]) was above 1 µM; in assay [3] it was below 1 µM. Besides, the Kd in assay [2] was below 0.4 µM.

As for `C[C@@H](Nc1nc(Cl)nc2c1CN(C(=O)N1CCNC(c3ccncc3)C1)C2)c1cccc(C(F)F)c1F` (stereo partly drawn) [Example 401], the IC50 in assay [1] (setting [4]) and in assay [3] was below 1 µM each time. In addition, in assay [2], the Kd is below 0.4 µM.

As to `C[C@@H](Nc1nc(Cl)nc2c1CN(C(=O)N1CC3CCC1CN3)C2)c1cccc(C(F)F)c1F` (stereo partly drawn) [Example 384], the IC50 in assay [1] (setting [4]) and in assay [3] was below 1 µM each time. Also, the Kd in assay [2] is below 0.4 µM.

`COc1nccnc1C(=O)N1Cc2nc(Cl)nc(N[C@H](C)c3cc(N)cc(C(F)(F)F)c3)c2C1` [Example 75]: the IC50 in assay [1] (setting [4]) and in assay [3] was below 1 µM each time. For the same compound, the equilibrium dissociation constant (Kd) in assay [2] was below 0.4 µM.

On to `C[C@@H](Nc1nc(Cl)nc2c1CN(C(=O)C13CCN(CC1)C3)C2)c1cccc(C(F)F)c1F` [Example 312], for which the IC50 in assay [1] (setting [4]) and in assay [3] was below 1 µM each time. The Kd in assay [2] is below 0.4 µM.

For `C[C@@H](Nc1nc(Cl)nc2c1CN(C(=O)c1cccc(Cl)n1)C2)c1cc(N)cc(C(F)(F)F)c1` [Example 87], the IC50 in assay [1] (setting [4]) is below 1 µM; in assay [3], above 1 µM. Also, the dissociation constant Kd in assay [2] was above 0.4 µM.

In the case of `C[C@@H](Nc1nc(Cl)nc2c1CN(C(=O)N1C3COCC1COC3)C2)c1cccc(C(F)F)c1F` [Example 409], the IC50 in assay [1] (setting [4]) and in assay [3] was below 1 µM in each case. Moreover, the Kd in assay [2] was below 0.4 µM.

Take `C[C@@H](Nc1nc(Cl)nc2c1CN(C(=O)C1(C)CCNCC1)C2)c1cccc(C(F)(F)F)c1` [Example 314]: the IC50 in assay [1] (setting [4]) was above 1 µM; in assay [3], below 1 µM. Moreover, the Kd in assay [2] is below 0.4 µM.

Consider `C[C@@H](Nc1nc(Cl)nc2c1CN(S(=O)(=O)N1CCOCC1)CC2)c1cccc(C(F)(F)F)c1` [Example 185], for which the IC50 was above 1 µM in assay [1] (setting [4]) and below 1 µM in assay [3]. Also, in assay [2], the Kd was above 0.4 µM.

`C[C@@H](Nc1nc(Cl)nc2c1CN(C(=O)N1CCOCC1)C2)c1cccc(C(F)F)c1Br` [Example 528, N-[(1R)-1-[2-bromo-3-(difluoromethyl)phenyl]ethyl]-2-chloro-6-(morpholine-4-carbonyl)-5H,6H,7H-pyrrolo[3,4-d]pyrimidin-4-amine]: the IC50 in assay [1] (PC-9, 1 h) is below 1 µM; in assay [3], below 1 µM. In assay [2], the Kd was above 0.4 µM.

For `C[C@@H](Nc1ncnc2c1CC(N1CC3(COC3)C1)CC2)c1cccc(C(F)(F)CO)c1` (stereo partly drawn) [Example 439], the IC50 in assay [1] (setting [4]) and in assay [3] was below 1 µM throughout. Further, in assay [2], the Kd is below 0.4 µM.

For `C[C@@H](Nc1nc(Cl)nc2c1CN(C(=O)C1(C#N)CC1)CC2)c1cc(N)cc(C(F)(F)F)c1` [Example 194], the IC50 in assay [1] (setting [4]) was below 1 µM; in assay [3] it was above 1 µM. Further, in assay [2], the Kd is above 0.4 µM.

For the compound `COC1(C(=O)N2Cc3nc(Cl)nc(N[C@H](C)c4cccc(C(F)(F)F)c4)c3C2)CCNCC1` [Example 315], the IC50 in assay [1] (setting [4]) and in assay [3] was below 1 µM each time. Moreover, in assay [2], the dissociation constant Kd is below 0.4 µM.

`C[C@@H](Nc1nc(Cl)nc2c1CN(C(=O)N1CCOc3cccnc31)C2)c1cc(N)cc(C(F)(F)F)c1` [Example 160]: the IC50 in assay [1] (setting [4]) and in assay [3] was below 1 µM in each case. The equilibrium dissociation constant (Kd) in assay [2] was below 0.4 µM.
